Results published in ChEMBL document CHEMBL1201862, “PubChem BioAssay data set” (2004).
The source made the active and inactive calls.

Columns and labels:
[1] = molecular target: T1, Protein skinhead-1 (Caenorhabditis elegans, UniProt P34707); type: functional
T1 sequence (P34707 whole entry): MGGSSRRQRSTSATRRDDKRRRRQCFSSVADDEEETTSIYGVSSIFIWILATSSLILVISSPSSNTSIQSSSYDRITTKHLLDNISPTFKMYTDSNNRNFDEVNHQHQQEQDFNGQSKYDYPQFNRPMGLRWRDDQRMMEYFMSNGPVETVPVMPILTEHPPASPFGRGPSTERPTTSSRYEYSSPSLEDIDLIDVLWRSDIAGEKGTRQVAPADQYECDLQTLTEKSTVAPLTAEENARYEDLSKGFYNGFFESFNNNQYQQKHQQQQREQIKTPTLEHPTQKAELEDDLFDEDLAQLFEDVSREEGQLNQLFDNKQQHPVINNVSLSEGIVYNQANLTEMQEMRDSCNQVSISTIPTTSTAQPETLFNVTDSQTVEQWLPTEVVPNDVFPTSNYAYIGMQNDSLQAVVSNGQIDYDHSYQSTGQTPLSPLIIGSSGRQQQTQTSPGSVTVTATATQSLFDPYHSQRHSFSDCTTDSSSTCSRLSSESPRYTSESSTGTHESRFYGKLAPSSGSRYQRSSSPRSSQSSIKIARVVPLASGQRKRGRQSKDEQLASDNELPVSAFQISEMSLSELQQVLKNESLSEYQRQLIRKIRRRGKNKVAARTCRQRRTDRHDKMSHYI

[2] = molecular target: Cytochrome P450 3A4 (Homo sapiens, UniProt P08684);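 note: CYP3A4 tested as one member of a cytochrome P450 panel screen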
Cytochrome P450 3A4, sequence (P08684 whole entry): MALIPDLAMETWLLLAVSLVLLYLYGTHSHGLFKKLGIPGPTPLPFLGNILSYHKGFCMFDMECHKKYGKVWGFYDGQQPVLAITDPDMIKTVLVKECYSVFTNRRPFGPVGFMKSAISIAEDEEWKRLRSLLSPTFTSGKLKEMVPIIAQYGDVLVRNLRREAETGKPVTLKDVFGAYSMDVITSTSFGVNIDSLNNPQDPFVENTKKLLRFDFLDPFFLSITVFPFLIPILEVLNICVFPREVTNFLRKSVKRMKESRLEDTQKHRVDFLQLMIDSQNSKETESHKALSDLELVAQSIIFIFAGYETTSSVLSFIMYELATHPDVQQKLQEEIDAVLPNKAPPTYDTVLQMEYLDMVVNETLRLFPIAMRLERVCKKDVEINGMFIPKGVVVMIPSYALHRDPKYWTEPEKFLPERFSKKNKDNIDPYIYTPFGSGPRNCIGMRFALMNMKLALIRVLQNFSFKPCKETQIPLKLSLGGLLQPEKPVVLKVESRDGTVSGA

[3] = molecular target: T2, Cytochrome P450 1A2 (Homo sapiens, UniProt P05177);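 note: PubChem cytochrome P450 panel assay, CYP1A2 panel member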
T2 sequence (P05177 whole entry): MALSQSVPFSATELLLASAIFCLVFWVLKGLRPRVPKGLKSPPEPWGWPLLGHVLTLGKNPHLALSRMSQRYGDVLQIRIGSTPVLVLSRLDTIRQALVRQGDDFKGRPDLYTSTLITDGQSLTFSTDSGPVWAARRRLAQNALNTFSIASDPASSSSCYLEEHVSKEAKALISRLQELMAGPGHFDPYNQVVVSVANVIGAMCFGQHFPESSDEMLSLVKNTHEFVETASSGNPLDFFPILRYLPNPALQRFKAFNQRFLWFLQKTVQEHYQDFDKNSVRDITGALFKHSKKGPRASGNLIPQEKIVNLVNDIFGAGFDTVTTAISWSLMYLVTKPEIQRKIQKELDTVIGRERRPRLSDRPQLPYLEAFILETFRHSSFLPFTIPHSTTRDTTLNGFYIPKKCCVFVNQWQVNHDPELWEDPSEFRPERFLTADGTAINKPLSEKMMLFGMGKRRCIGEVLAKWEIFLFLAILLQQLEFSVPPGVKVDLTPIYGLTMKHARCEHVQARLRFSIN

[4] = molecular target: Cytochrome P450 2C9 (Homo sapiens, UniProt P11712)
Cytochrome P450 2C9, sequence (P11712 whole entry): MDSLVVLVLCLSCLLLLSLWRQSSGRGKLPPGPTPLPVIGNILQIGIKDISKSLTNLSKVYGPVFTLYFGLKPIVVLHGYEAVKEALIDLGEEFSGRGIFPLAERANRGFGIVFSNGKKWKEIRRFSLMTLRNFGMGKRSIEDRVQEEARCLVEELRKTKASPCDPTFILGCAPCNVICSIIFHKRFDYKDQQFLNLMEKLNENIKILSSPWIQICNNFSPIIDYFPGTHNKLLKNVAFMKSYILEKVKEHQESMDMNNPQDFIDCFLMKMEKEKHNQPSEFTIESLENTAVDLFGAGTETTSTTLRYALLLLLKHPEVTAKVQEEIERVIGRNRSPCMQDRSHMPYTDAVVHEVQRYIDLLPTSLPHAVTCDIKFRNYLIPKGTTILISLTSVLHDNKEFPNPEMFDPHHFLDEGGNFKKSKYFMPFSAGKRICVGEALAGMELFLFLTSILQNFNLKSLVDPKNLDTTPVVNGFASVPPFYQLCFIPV

[5] = non-specific 3'UTR reporter inhibition in Clone20-Shn3RL – cell-based, Renilla luciferase, cherry-picked, counter-screen for Shn3 inhibitor project, dose response (AID 624133); type: functional
[6] = test system: Streptococcus sp. 'group A'; test: Streptococcus pyogenes SK(-)GAS viability under kanamycin – luminescence, BacTiterGlo, confirmation, counter-screen for streptokinase expression inhibitor project, dose response (AID 1900); type: functional, organism-based
[7] = Trypanosoma cruzi growth suppression in host cells – NIH3T3 host cells, beta-gal luminescence, confirmation (AID 2044); type: functional, cell-based;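 note: intracellular parasites grown in NIH/3T3 mouse fibroblasts as host cells; luminescent beta-galactosidase reporter signal from transgenic T. cruzi replicating inside host cells; inhibitors lower the luminescence signal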
[8] = NIH3T3 cell viability loss – ATP luminescence, mouse fibroblasts, counter-screen, dose response (AID 2010); type: functional, cell-based;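 note: cells exposed to compound for about 90 hours before reading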
[9] = loss of viability in HepG2 cells – cell-based, CellTiter-Glo, cherry-picked, cytotoxicity control for Shn3 inhibitor project, dose response (AID 624134); type: functional
[10] = molecular target: T3, Streptokinase A (Streptococcus pyogenes serotype M1, UniProt P10520); test: viability-normalized secreted streptokinase activity reduction – plasminogen activation absorbance, OD405, dose response (AID 1914); type: functional, Streptococcus pyogenes M1 GAS;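 note: secreted streptokinase activity via plasminogen activation per viability signal from cell pellet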
T3 sequence (P10520 whole entry): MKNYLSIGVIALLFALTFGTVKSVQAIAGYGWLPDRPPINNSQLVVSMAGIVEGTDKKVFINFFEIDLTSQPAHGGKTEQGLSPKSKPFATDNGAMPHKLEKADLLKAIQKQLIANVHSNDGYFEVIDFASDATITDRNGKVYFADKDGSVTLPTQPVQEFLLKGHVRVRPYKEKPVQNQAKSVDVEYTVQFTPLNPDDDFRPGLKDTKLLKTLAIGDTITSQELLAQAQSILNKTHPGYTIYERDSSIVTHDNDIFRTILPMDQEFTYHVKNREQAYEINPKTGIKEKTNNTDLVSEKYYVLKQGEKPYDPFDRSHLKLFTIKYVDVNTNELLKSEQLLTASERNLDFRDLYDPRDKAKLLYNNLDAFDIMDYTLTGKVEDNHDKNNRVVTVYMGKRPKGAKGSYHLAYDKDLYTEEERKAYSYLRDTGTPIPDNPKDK

[11] = reduction of Shn3 3'UTR-driven luciferase in osteoblasts – cell-based, Clone20 osteoblasts, firefly luciferase, cherry-picked, dose response (AID 624132); type: functional;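 note: firefly luciferase luminescence from reporter carrying the Shn3 3'UTR in osteoblasts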
[12] = test system: Streptococcus; test: GAS UMAA2166 growth inhibition – luminescence, BacTiterGlo, counter-screen for streptokinase expression inhibitor project, dose response (AID 1915); type: functional, organism-based;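 note: potency for reduction of bacterial viability or growth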
[13] = molecular target: Genome polyprotein (dengue virus type 2, UniProt P29990); test: flavivirus cap methylation enzyme inhibition – biochemical, confirmation dose response, primary screen (AID 588689); type: functional
Genome polyprotein, sequence (P29990 2492-3391 limits assumed): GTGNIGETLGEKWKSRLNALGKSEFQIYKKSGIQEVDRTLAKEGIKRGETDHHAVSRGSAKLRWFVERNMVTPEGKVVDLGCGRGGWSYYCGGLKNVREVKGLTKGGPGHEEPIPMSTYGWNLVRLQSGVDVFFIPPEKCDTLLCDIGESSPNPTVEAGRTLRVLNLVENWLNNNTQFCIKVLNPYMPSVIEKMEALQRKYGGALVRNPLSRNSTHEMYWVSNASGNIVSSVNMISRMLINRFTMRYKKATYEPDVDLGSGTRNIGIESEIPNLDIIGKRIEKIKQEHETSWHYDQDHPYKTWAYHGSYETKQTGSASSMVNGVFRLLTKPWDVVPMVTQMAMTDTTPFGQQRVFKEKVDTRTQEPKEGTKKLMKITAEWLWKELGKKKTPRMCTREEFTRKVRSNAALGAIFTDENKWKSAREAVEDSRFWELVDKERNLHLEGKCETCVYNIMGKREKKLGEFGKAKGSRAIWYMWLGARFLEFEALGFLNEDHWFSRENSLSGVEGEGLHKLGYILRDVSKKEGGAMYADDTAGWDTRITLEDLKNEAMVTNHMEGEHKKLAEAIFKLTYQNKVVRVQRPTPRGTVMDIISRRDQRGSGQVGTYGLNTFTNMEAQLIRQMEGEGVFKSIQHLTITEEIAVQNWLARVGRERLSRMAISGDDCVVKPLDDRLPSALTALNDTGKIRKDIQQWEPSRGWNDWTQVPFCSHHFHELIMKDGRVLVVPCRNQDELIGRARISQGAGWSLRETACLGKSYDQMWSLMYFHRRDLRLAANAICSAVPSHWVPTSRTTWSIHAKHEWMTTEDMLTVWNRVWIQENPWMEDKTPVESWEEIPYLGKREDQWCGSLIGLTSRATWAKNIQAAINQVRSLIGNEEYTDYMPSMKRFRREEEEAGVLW

[14] = molecular target: FAD-linked sulfhydryl oxidase ALR (Homo sapiens, UniProt P55789); test: ALR-catalysed DTT oxidation blockers – biochemical, H2O2 detection, luminescence, cherry-pick, dose response (AID 493248)
FAD-linked sulfhydryl oxidase ALR, sequence (P55789 whole entry): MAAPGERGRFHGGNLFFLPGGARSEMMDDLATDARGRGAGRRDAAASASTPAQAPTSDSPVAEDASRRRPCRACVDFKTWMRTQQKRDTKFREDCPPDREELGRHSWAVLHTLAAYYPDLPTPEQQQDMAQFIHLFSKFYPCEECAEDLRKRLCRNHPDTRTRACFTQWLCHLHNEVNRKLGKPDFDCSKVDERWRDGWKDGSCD

[15] = cells; type: functional
[16] = Luminescence Cell-Based Dose Confirmation HTS to Identify Inhibitors of Platelet Dense Granule Release. [Related pubchem assays: 1663 (Primary HTS), 1678 (Summary of Project)]; type: functional
[17] = Luminescence Cell-Based Dose Response HTS to Identify Inhibitors of 5'UTR Stem-Loop Driven Prion Protein mRNA Translation in H4 Neuroglioblastoma Cells. [Related pubchem assays: 1827 (Project Summary), 1813 (Primary HTS)]; type: functional
[18] = alpha-synuclein stem-loop luciferase translation blockers – H4 neuroglioma cells, luminescence, confirmation (AID 1988); type: functional, cell-based
[19] = molecular target: Luciferin 4-monooxygenase (Photinus pyralis, UniProt P08659); test: inhibition of purified Photinus pyralis luciferase – biochemical, luminescence, dose response (AID 1891)
Luciferin 4-monooxygenase, sequence (P08659 whole entry): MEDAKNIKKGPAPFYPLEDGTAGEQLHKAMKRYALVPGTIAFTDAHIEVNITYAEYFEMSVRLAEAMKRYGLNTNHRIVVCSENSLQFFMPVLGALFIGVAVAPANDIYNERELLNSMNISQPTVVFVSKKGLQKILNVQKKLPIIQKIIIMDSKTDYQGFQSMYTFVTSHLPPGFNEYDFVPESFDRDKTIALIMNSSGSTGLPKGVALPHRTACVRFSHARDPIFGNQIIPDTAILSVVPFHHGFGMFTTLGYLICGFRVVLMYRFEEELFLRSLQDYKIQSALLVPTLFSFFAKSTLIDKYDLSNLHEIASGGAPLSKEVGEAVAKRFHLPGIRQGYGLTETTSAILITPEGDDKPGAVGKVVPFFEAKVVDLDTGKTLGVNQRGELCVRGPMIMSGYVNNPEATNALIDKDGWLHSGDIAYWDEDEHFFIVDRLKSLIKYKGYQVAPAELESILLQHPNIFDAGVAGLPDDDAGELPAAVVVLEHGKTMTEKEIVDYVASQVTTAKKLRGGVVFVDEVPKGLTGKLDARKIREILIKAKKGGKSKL

[20] = viability of HCT116 lacking mutant beta-catenin – cell-based, human colon tumor, dose response (AID 1045); type: functional;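 note: HCT116 colon tumor cells with beta catenin knocked out; cells exposed to compound for 60 hours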
[21] = viability of uninfected HEp-2 cells – cell-based, HTS, cytotoxicity control for RSV inhibitor project, dose response (AID 2410); type: functional; conditions: human respiratory syncytial virus

Clc1ccc(-c2nnc(-c3ccccc3)c(N3CCSCC3)n2)cc1
IC50 [1]: > 100 µM (inactive)

CCN(C(=O)CN1C(=O)S/C(=C\c2cccc(Cl)c2)C1=O)C1CCS(=O)(=O)C1 (centres undefined)
IC50 [1]: > 100 µM (inactive)

CCCN(CCC)C[C@@H]1CCCCN1CCNC(=O)N1c2ccccc2C(=O)Nc2cccnc21
AC50 [2]: 15.8 µM (inconclusive) | AC50 [3]: 25.1 µM (inconclusive) | AC50 [4]: inconclusive

Cc1cc2nnc(SCCCCN3C(=O)c4ccccc4C3=O)n2c2ccccc12
AC50 [4]: inconclusive

Clc1ncc(CSc2ccccc2)s1
IC50 [1]: 84.8 µM (inactive)

CCC(=O)NC(c1ccc(OC)c(OC)c1)c1cc(Cl)c2cccnc2c1O (centres undefined)
AC50 [5]: 2.11 µM (active) | EC50 [6]: 4.86 µM (active) | EC50 [7]: 0.96 µM (active) | EC50 [8]: 4.73 µM (active) | AC50 [9]: 5.6 µM (active) | EC50 [10]: > 150 µM (not active) | AC50 [11]: < 0.26 µM (active) | EC50 [12]: > 150 µM (not active)

C=CCc1cc(C=C2C(=O)NC(=O)NC2=O)cc(OC)c1OCc1ccc(C(=O)O)cc1
IC50 [13]: 29.1 µM (active)

O=C(O)c1ccc(Cl)c(S(=O)(=O)Nc2ccc(S(=O)(=O)Nc3cccc(Cl)c3)cc2)c1
IC50 [13]: 65.7 µM (active)

Cc1ccc(C(C)C)cc1NC(=O)Nc1ccc([N+](=O)[O-])cc1
AC50 [5]: 6.53 µM (active) | EC50 [6]: 6.64 µM (active) | AC50 [9]: 22.4 µM (active) | EC50 [10]: 10.8 µM (active) | AC50 [11]: 7.19 µM (active) | EC50 [12]: 17.5 µM (active)

C=CCN1C(=O)NC(=O)/C(=C\c2ccc(-c3ccccc3[N+](=O)[O-])o2)C1=O
IC50 [13]: 25.2 µM (active) | AC50 [14]: 0.507 µM (active)

CCCCCn1c(=N)n(CC(O)COc2ccccc2OC)c2ccccc21 (centres undefined)
AC50 [5]: 23.4 µM (active) | AC50 [9]: 24.2 µM (active) | AC50 [11]: 2.12 µM (active)

CN1C(c2ccccc2)CC(=NO)CC1c1ccccc1 (centres undefined)
IC50 [15]: 16.6 µM (active)

COc1ccc(/C=C(/C#N)C(=O)NC2CCCCC2)cc1Br
AC50 [2]: 25.1 µM (inconclusive) | AC50 [4]: inconclusive

O=C1NC(=O)N(c2ccccc2)C(=O)/C1=C\c1ccccc1[N+](=O)[O-]
IC50 [13]: 38.5 µM (active)

COc1cccc(C2=NN(C(C)=O)C(c3cccs3)C2)c1 (centres undefined)
IC50 [1]: > 100 µM (inactive)

CCCCOc1ccc(Br)cc1CSC(=N)N
AC50 [5]: 2.58 µM (active) | AC50 [9]: 23.6 µM (active) | AC50 [11]: 1.37 µM (active)

O=C(COc1ncnc2c(Cl)cc(Cl)cc12)N1CCCCC1
IC50 [1]: > 100 µM (inactive)

O=[N+]([O-])c1c(O)nc(O)nc1/C=C/c1ccc(Cl)cc1Cl
IC50 [13]: 49.1 µM (active)

CC(C)NS(=O)(=O)c1ccc(CCC(=O)Nc2cc(Cl)ccc2Oc2ccccc2)cc1
AC50 [5]: 22.5 µM (active) | AC50 [9]: 57.7 µM (active) | AC50 [11]: 7.65 µM (active)

O=C(/C=C/Nc1ccc(Br)cc1F)c1ccco1
IC50 [1]: 15.4 µM (active) | EC50 [16]: 8.72 µM (active) | EC50 [17]: 3.64 µM (active) | EC50 [18]: 4.41 µM (active) | EC50 [19]: 0.482 µM (active)

O=C(Nc1ccccc1N1CCOCC1)c1ccccc1[N+](=O)[O-]
AC50 [3]: 12.6 µM (inconclusive) | AC50 [4]: inconclusive

Nc1nc(S)nc2c1C1(CCCCC1)Cc1ccccc1-2
AC50 [5]: 25 µM (active) | AC50 [9]: > 70 µM (inactive)

COc1ccc(Oc2ncc3nc(-c4cn(C)c5ccccc45)c(=O)n(CCC#N)c3n2)cc1
AC50 [3]: 2 µM (inconclusive) | AC50 [4]: inconclusive

C#CCOc1ccc(/C=C2/C(=O)ON=C2C)cc1Br
IC50 [13]: 80.7 µM (active)

O=[N+]([O-])c1cc(N=Nc2ccc3ccccc3c2)ccc1O
IC50 [15]: > 50 µM (active) | EC50 [16]: 2.24 µM (active) | EC50 [19]: 0.173 µM (active)

Cc1ccc(C)c(NC(=O)c2cc3ccccc3o2)c1
IC50 [1]: > 100 µM (inactive)

CCOC(=O)COc1ccc2c(c1)c(C(C)=O)c(C)n2Cc1ccccc1
IC50 [15]: 7.41 µM (active)

O=C(NC1CS(=O)(=O)CC1NCc1ccccc1)c1ccccc1 (centres undefined)
IC50 [1]: > 100 µM (inactive)

O=C(NC1CCCC1)C1CC(c2ccc(F)cc2)=NO1 (centres undefined)
AC50 [2]: 25.1 µM (inconclusive) | AC50 [4]: inconclusive

CN(C)c1ncc2nc(-c3cc(F)cc(F)c3)c(=O)n(CCC#N)c2n1
AC50 [2]: 39.8 µM (inconclusive) | AC50 [4]: inconclusive

COc1cc2ccccc2cc1C(=O)Nc1ccncc1
IC50 [1]: 52.3 µM (inactive)

CCC[C@H]1C[C@H](C(=O)N[C@H]([C@@H]2O[C@H](SC)[C@@H](O)[C@H](O)[C@@H]2O)[C@H](C)O)N(C)C1
AC50 [4]: inconclusive

c1ccc2c(c1)NC(c1ccncc1)n1c-2nc2ccccc21 (centres undefined)
IC50 [1]: > 100 µM (inactive)

COc1ccc(C(=O)CCN2CCCCCC2)cc1
IC50 [15]: 22.2 µM (active) | EC50 [20]: 124 µM (active)

Fc1ccc(-c2nnn(Cc3nc4ccccc4s3)n2)cc1
IC50 [1]: 80.1 µM (inactive)

Cc1c(-c2nc(-c3cccnc3)no2)cccc1[N+](=O)[O-]
IC50 [1]: > 100 µM (inactive)

Cc1ccccc1OCC(=O)OCC(=O)c1ccc[nH]1
IC50 [15]: 20.3 µM (active)

O=C(COC(=O)[C@@H]1CCCN1C(=O)c1cccs1)NCCc1ccccc1
IC50 [1]: > 100 µM (inactive)

O=Nc1c(O)ccc2cc(S(=O)(=O)O)ccc12
IC50 [13]: 45.7 µM (active)

Clc1cccc(-c2nc3ccc(Br)cn3c2Cc2ccsc2)c1
IC50 [1]: 54.8 µM (inactive)

O=C(O)CN1C(=O)C=CC1=O
IC50 [13]: > 100 µM (active)

CN(C)C(=O)c1cccc(-c2cnc3c(NC=O)cc(-c4ccc(N(C)C)cc4)cn23)c1
IC50 [1]: > 100 µM (inactive)

CC(C)c1ccc(NC(=O)Nc2nc(C(N)C3CCCCC3)cs2)cc1 (centres undefined)
AC50 [5]: 4.41 µM (active) | AC50 [9]: 13.8 µM (active) | AC50 [11]: 7.29 µM (active)

Cc1ccc(-c2nc3ccc(C(=O)O)cc3nc2-c2ccc(C)cc2)cc1
IC50 [13]: 55.3 µM (active) | CC50 [21]: 19.4 µM (active)

O=C(O)Cc1nn(Cc2ccc(Br)cc2F)c(=O)c2ccccc12 [PONALRESTAT]
AC50 [3]: 31.6 µM (inconclusive) | AC50 [4]: inconclusive

COc1ccn(C)c(=O)c1C#N [RICININE]
AC50 [4]: inconclusive
